Reference: patent US20230024096A1, “BIFUNCTIONAL COMPOUNDS FOR THE TREATMENT OF CANCER” (Hoffmann-La Roche Inc., priority 2019, published 2023)

Biological target: T1, SMARCA2 (Homo sapiens, UniProt P51531)
T1 construct: endogenous in cells; host or cells: HT1080 (CRISPR HiBiT knock-in clone, generated in house)
Assay: SMARCA2 HiBiT degradation assay (cellular)
Format: cell-based
Conditions: table head names A549; for DC50: 6 h incubation, HiBiT-tagged SMARCA2, luminescence read-out, read-out: HiBit A549 SMARCA2 IP (nM) 6 h; for Emax: A549, 6 h incubation, Emax = amount of residual protein remaining in the cell following compound treatment

T1 sequence (P51531 whole entry): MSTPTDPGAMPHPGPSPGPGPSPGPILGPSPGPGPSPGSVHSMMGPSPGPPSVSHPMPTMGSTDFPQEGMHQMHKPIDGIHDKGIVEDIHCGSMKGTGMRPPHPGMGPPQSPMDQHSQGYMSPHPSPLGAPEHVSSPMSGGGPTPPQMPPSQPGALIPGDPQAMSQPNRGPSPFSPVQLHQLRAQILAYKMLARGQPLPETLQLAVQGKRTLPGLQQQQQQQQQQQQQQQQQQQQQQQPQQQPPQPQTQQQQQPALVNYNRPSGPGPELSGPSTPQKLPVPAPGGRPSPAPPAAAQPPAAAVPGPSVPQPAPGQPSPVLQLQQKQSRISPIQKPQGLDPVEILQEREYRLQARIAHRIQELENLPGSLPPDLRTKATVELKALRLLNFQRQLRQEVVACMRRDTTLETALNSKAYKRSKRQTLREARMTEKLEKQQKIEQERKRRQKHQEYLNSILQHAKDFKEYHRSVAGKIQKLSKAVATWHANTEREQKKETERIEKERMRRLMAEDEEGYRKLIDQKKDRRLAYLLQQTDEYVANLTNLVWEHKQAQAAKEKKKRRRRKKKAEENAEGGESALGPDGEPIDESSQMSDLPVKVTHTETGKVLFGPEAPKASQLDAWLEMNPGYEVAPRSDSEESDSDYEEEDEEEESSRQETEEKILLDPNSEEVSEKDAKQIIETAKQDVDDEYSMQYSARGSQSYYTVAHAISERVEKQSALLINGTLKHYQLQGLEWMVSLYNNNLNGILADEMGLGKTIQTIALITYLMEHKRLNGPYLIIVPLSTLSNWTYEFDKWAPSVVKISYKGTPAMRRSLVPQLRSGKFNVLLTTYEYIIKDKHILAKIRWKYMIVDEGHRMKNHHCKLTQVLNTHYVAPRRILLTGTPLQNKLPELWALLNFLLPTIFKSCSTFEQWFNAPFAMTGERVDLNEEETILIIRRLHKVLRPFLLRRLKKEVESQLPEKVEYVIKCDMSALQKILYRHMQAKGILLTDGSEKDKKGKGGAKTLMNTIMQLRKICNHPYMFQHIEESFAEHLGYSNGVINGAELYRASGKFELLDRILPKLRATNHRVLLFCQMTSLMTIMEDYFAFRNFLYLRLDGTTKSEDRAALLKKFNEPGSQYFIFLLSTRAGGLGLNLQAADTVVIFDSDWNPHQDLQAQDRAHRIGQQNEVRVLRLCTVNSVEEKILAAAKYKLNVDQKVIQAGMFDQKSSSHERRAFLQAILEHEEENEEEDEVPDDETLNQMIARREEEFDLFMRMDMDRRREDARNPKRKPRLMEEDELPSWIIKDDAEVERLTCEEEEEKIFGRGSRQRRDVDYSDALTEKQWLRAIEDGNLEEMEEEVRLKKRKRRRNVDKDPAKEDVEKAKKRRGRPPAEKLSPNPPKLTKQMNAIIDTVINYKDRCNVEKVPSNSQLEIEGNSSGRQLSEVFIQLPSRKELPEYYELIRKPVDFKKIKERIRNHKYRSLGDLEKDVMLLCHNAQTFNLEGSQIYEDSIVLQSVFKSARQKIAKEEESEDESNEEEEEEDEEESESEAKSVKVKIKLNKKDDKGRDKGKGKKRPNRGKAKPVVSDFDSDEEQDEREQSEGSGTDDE

SMILES | DC50 | Emax
Nc1ccccc1-c1cc(N2CC3CCC(C2)N3c2cccc(CN3CCN(C(=O)C4CCN(c5ccc6c(c5)C(=O)N(C5CCC(=O)NC5=O)C6=O)CC4)CC3)c2)c(N)nn1 (centres unmarked) [Example 147, 5-[4-[4-[[3-[3-[3-amino-6-(2-aminophenyl)pyridazin-4-yl]-3,8-diazabicyclo[3.2.1]octan-8-yl]phenyl]methyl]piperazine-1-carbonyl]-1-piperidyl]-2-(2,6-dioxo-3-piperidyl)isoindoline-1,3-dione] | 236 nM | 69%
Nc1nnc(-c2ccccc2O)cc1N1CC2CCC(C1)N2c1cccc(OCCN2CCN(C(=O)N3CCC(c4ccc(NC5CCC(=O)NC5=O)cc4)CC3)CC2)c1 (racemic) [Example 80, rac-3-[4-[1-[4-[2-[3-[3-[3-amino-6-(2-hydroxyphenyl)pyridazin-4-yl]-3,8-diazabicyclo[3.2.1]octan-8-yl]phenoxy]ethyl]piperazine-1-carbonyl]-4-piperidyl]anilino]piperidine-2,6-dione] | 11 nM | 51%
Nc1nnc(-c2ccccc2O)cc1N1CCC(NC(=O)CC2CCN(C(=O)C3CCN(c4ccc5c(c4)C(=O)N(C4CCC(=O)NC4=O)C5=O)CC3)CC2)(c2ccccc2)CC1 (centres unmarked) [Example 184, N-[1-[3-amino-6-(2-hydroxyphenyl)pyridazin-4-yl]-4-phenyl-4-piperidyl]-2-[1-[1-[2-(2,6-dioxo-3-piperidyl)-1,3-dioxo-isoindolin-5-yl]piperidine-4-carbonyl]-4-piperidyl]acetamide] | 494 nM | 65%
CC(Oc1cccc2c1C(=O)N(C1CCC(=O)NC1=O)C2=O)c1cn(CCCCCCOCCN2CCN(c3ccc(N4CCC[C@H](Oc5cc(-c6ccccc6O)nnc5N)C4)cc3)CC2)nn1 (mixture of isomers) [Example 202, 2-(2,6-dioxo-3-piperidyl)-4-[1-[1-[6-[2-[4-[4-[rac-(3S)-3-[3-amino-6-(2-hydroxyphenyl)pyridazin-4-yl]oxy-1-piperidyl]phenyl]piperazin-1-yl]ethoxy]hexyl]triazol-4-yl]ethoxy]isoindoline-1,3-dione] | 107 nM | 44%
CN(C(=O)C1CCN(Cc2cccc(N3C4CCC3CN(c3cc(-c5ccccc5O)nnc3N)C4)c2)CC1)C1CCN(c2ccc3c(c2)C(=O)N(C2CCC(=O)NC2=O)C3=O)CC1 (racemic) [Example 118, rac-1-[[3-[3-[3-amino-6-(2-hydroxyphenyl)pyridazin-4-yl]-3,8-diazabicyclo[3.2.1]octan-8-yl]phenyl]methyl]-N-[1-[2-(2,6-dioxo-3-piperidyl)-1,3-dioxo-isoindolin-5-yl]-4-piperidyl]-N-methyl-piperidine-4-carboxamide] | 11 nM | 26%
Nc1nnc(-c2ccccc2O)cc1O[C@H]1CCCN(c2ccc(N3CCN(CCCCCCCCCn4cc(CNc5cccc6c5C(=O)N(C5CCC(=O)NC5=O)C6=O)nn4)CC3)cc2)C1 (mixture of isomers) [Example 66, 2-(2,6-dioxo-3-piperidyl)-4-[[1-[9-[4-[4-[rac-(3S)-3-[3-amino-6-(2-hydroxyphenyl)pyridazin-4-yl]oxy-1-piperidyl]phenyl]piperazin-1-yl]nonyl]triazol-4-yl]methylamino]isoindoline-1,3-dione] | 144 nM | 60%
Nc1nnc(-c2ccccc2O)cc1N1CC(Oc2ccc(CN3CCN(C(=O)CCCCCCCCCNc4cccc5c4C(=O)N(C4CCC(=O)NC4=O)C5=O)CC3)cc2)C1 (centres unmarked) [Example 68, 4-[[10-[4-[[4-[1-[3-amino-6-(2-hydroxyphenyl)pyridazin-4-yl]azetidin-3-yl]oxyphenyl]methyl]piperazin-1-yl]-10-oxo-decyl]amino]-2-(2,6-dioxo-3-piperidyl)isoindoline-1,3-dione] | 201 nM | 55%
